Values quoted from earlier work as cited in patent US20220195167A1, “COMPOSITIONS COMPRISING STYRENATED BLOCK COPOLYMER, NON-POLAR OIL AND POLAR OIL” (L'OREAL, priority 2020, published 2022).

SMILES | log P
CCCCCCCC(=O)OCC(COC(=O)CCCCCCC)OC(=O)CCCCCCC [Tricaprylin] | 9.33
CC(C)CCCCCCCOC(=O)C(C)(C)C [Isodecyl neopentanoate] | 6.00

Other lines, results leading:

log P | SMILES
9.37 | CC(C)CCCCCCCCCCCCCCC(=O)OC(C)C [Isopropyl isostearate]
8.49 | CCCCCCCCCCCCCCCC(=O)OC(C)C [Isopropyl palmitate]
10.25 | CC(C)CCCCCCCCCCCCCCCOC(=O)C(C)(C)C [Isostearyl neopentanoate]
